Results taken from the supplement of paper PMC10883282.

Assays:
Assay in all cases: relative viability vs DMSO control (72 h) (fraction); higher = more viable cells
G401 = system: G401
In short: (§1)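 Densities for seeding sarcoma cell lines into 384-well plates were set to give 80–90% confluence. After 24 h, 2.5 µl of serially diluted compound from source plates of 10 mM to 0.0002 mM went in, and plates stayed 72 h at 37 °C in 5% CO2 with 0.1% DMSO vehicle and a 5 µM positive control. Percent growth from ATPLite readings, averaged over up to triplicate wells, served as relative viability, rescaled so 1 means full and 0 means none.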

HT1080 = system: HT1080
In short: as §1

KHOS-NP = system: KHOS-NP
In short: as §1

MES-SA = system: MES-SA
In short: as §1

RD-ES = system: RD-ES
In short: as §1

RD = system: RD
In short: as §1

SK-ES-1 = system: SK-ES-1
In short: as §1

SK-LMS-1 = system: SK-LMS-1
In short: as §1

SW1353 = system: SW1353
In short: as §1

SW684 = system: SW684
In short: as §1

SW872 = system: SW872
In short: as §1

VA-ES-BJ = system: VA-ES-BJ
In short: as §1

CC(C)(C)c1nc(-c2cccc(NS(=O)(=O)c3c(F)cccc3F)c2F)c(-c2ccnc(N)n2)s1 [Dabrafenib]
Details | relative viability
G401, 0.00017 µM | 0.982
G401, 0.00051 µM | 0.994
G401, 0.00152 µM | 0.916
G401, 0.00457 µM | 0.937
G401, 0.01372 µM | 0.949
G401, 0.04115 µM | 0.955
G401, 0.1235 µM | 0.929
G401, 0.3704 µM | 0.857
G401, 1.111 µM | 0.768
G401, 3.333 µM | 0.781
G401, 10 µM | 0.814
HT1080, 0.00017 µM | 1.05
HT1080, 0.00051 µM | 1.09
HT1080, 0.00152 µM | 1.01
HT1080, 0.00457 µM | 1.07
HT1080, 0.01372 µM | 1.05
HT1080, 0.04115 µM | 1.11
HT1080, 0.1235 µM | 1.13
HT1080, 0.3704 µM | 0.944
HT1080, 1.111 µM | 0.837
HT1080, 3.333 µM | 0.886
HT1080, 10 µM | 0.6761
KHOS-NP, 0.00017 µM | 1.09
KHOS-NP, 0.00051 µM | 1.07
KHOS-NP, 0.00152 µM | 1.05
KHOS-NP, 0.00457 µM | 0.995
KHOS-NP, 0.01372 µM | 1.01
KHOS-NP, 0.04115 µM | 1.03
KHOS-NP, 0.1235 µM | 1.01
KHOS-NP, 0.3704 µM | 0.901
KHOS-NP, 1.111 µM | 0.743
KHOS-NP, 3.333 µM | 0.522
KHOS-NP, 10 µM | 0.303
MES-SA, 0.00017 µM | 0.944
MES-SA, 0.00051 µM | 0.921
MES-SA, 0.00152 µM | 0.908
MES-SA, 0.00457 µM | 0.905
MES-SA, 0.01372 µM | 0.909
MES-SA, 0.04115 µM | 0.883
MES-SA, 0.1235 µM | 0.733
MES-SA, 0.3704 µM | 0.53
MES-SA, 1.111 µM | 0.504
MES-SA, 3.333 µM | 0.744
MES-SA, 10 µM | 0.745
RD, 0.00017 µM | 1.07
RD, 0.00051 µM | 1.07
RD, 0.00152 µM | 1.07
RD, 0.00457 µM | 1.11
RD, 0.01372 µM | 1.12
RD, 0.04115 µM | 1.1
RD, 0.1235 µM | 1.1
RD, 0.3704 µM | 0.989
RD, 1.111 µM | 0.915
RD, 3.333 µM | 0.871
RD, 10 µM | 0.846
RD-ES, 0.00017 µM | 0.94
RD-ES, 0.00051 µM | 0.924
RD-ES, 0.00152 µM | 0.948
RD-ES, 0.00457 µM | 0.94
RD-ES, 0.01372 µM | 0.911
RD-ES, 0.04115 µM | 0.872
RD-ES, 0.1235 µM | 0.838
RD-ES, 0.3704 µM | 0.706
RD-ES, 1.111 µM | 0.531
RD-ES, 3.333 µM | 0.508
RD-ES, 10 µM | 0.557
SK-ES-1, 0.00017 µM | 1.01
SK-ES-1, 0.00051 µM | 1.04
SK-ES-1, 0.00152 µM | 1
SK-ES-1, 0.00457 µM | 1.02
SK-ES-1, 0.01372 µM | 0.987
SK-ES-1, 0.04115 µM | 0.927
SK-ES-1, 0.1235 µM | 0.794
SK-ES-1, 0.3704 µM | 0.524
SK-ES-1, 1.111 µM | 0.368
SK-ES-1, 3.333 µM | 0.41
SK-LMS-1, 0.00017 µM | 1.07
SK-LMS-1, 0.00051 µM | 1.06
SK-LMS-1, 0.00152 µM | 1.05
SK-LMS-1, 0.00457 µM | 1.02
SK-LMS-1, 0.01372 µM | 0.964
SK-LMS-1, 0.04115 µM | 0.84
SK-LMS-1, 0.1235 µM | 0.7165
SK-LMS-1, 0.3704 µM | 0.586
SK-LMS-1, 1.111 µM | 0.607
SK-LMS-1, 3.333 µM | 0.691
SK-LMS-1, 10 µM | 0.557
SW684, 0.00017 µM | 1.13
SW684, 0.00051 µM | 1.09
SW684, 0.00152 µM | 1.129
SW684, 0.00457 µM | 1.18
SW684, 0.01372 µM | 1.13
SW684, 0.04115 µM | 1.12
SW684, 0.1235 µM | 1.13
SW684, 0.3704 µM | 1.025
SW684, 1.111 µM | 0.953
SW684, 3.333 µM | 1.09
SW684, 10 µM | 1.16
SW872, 0.00017 µM | 1.08
SW872, 0.00051 µM | 1.01
SW872, 0.00152 µM | 0.907
SW872, 0.00457 µM | 0.821
SW872, 0.01372 µM | 0.614
SW872, 0.04115 µM | 0.558
SW872, 0.1235 µM | 0.525
SW872, 0.3704 µM | 0.463
SW872, 1.111 µM | 0.412
SW872, 3.333 µM | 0.398
SW872, 10 µM | 0.334
SW1353, 0.00017 µM | 1.02
SW1353, 0.00051 µM | 1.01
SW1353, 0.00152 µM | 0.957
SW1353, 0.00457 µM | 0.959
SW1353, 0.01372 µM | 0.9603
SW1353, 0.04115 µM | 0.936
SW1353, 0.1235 µM | 0.898
SW1353, 0.3704 µM | 0.875
SW1353, 1.111 µM | 0.859
SW1353, 3.333 µM | 0.89
SW1353, 10 µM | 0.988
VA-ES-BJ, 0.00017 µM | 1.02
VA-ES-BJ, 0.00051 µM | 1.02
VA-ES-BJ, 0.00152 µM | 1.06
VA-ES-BJ, 0.00457 µM | 1.05
VA-ES-BJ, 0.01372 µM | 1.07
VA-ES-BJ, 0.04115 µM | 1.02
VA-ES-BJ, 0.1235 µM | 1.01
VA-ES-BJ, 0.3704 µM | 0.82
VA-ES-BJ, 1.111 µM | 0.646
VA-ES-BJ, 3.333 µM | 0.654
VA-ES-BJ, 10 µM | 0.5821
